In one data set the test system is male Std:ddY mice. Description: Phenyl-1,4-benzoquinone-induced writhing test. It is filed as in vivo. The settings on record: for ED50 / ED50 (mg/kg sc) / ED50 (mg/kg po): writhing inhibition, logit analysis; for inhibition in vivo at 1 mg/kg / inhibition in vivo at 10 mg/kg: 1 h, 60 minutes before PBQ; for inhibition in vivo at 1 mg/kg: subcutaneously administered at a dose of 1 mg/kg; for inhibition in vivo at 10 mg/kg: orally administered at a dose of 10 mg/kg. The procedure:
Phenyl-1,4-benzoquinone-induced Writhing Test Referring to the method disclosed in Proc. Soc. exp. Biol. […] For oral administration, a test compound was suspended in 0.5% tragacanth solution. […] In the control group, a physiological saline solution containing 10% Tween 80 and 10% ethanol was administered in the case of subcutaneous administration, or a 0.5% tragacanth solution was administered in the case of oral administration. The number of writhing movements in the test compound-treated group was compared with that in the control group, and the writhing inhibitory percentage was calculated therefrom and considered as an analgesic effect. Writhing inhibitory percentage (%)=[(A−B)/A]×100 In the above equation, A means the number of writhing movements in the control group, and B means the number of writhing movements in the test compound-treated group. From the writhing inhibitory percentage of the test compound, ED50 (mg/kg) was calculated by logit analysis.
(In general: An intraperitoneal irritant provokes the stretching counted in writhing tests.)

The test system of the next data set is Jcl:SD strain male rats. In words: Study of pungency (eye wiping test). Type of data set: in vivo. The note with it: a drop into the eye of rats, counted for 3 minutes, average ± S.E.M. On the procedure: Experiment 2: Study of Pungency (Eye Wiping Test)
The pungency of the test compounds were studied referring to the method of Jancso et al. [Acta Physiol. Acad. Sci. Hung., 19, 113–131 (1961)] and the method of Szallasi et al. [Brit. J. Pharmacol., 119, 283–290 (1996)]. A test compound was dissolved in a physiological saline solution containing 10% ethanol and 10% Tween 80 into various concentrations (μg/ml), and a drop of the solution thereof was added dropwise into the eye of Jcl:SD strain male rats (5 to 25 […] per group, body weight; 220 to 280 g). Then, the number of the protective wiping movements with forefoot was counted for 3 minutes, and was considered as an index for pungency. The test results are expressed as average value±S.E.M., and the statistical significant differences between each test compound-treated group and the control group were analyzed using non-parametric Dunnett's multiple range test, and p<0.05 was considered as significant difference.

Setting [1] is: Mus musculus, po, oral administration, read-out: ED50 (mg/kg po).
Setting [2] is: Mus musculus, sc, read-out: Inhibitory percentage (%).
The mark [3] stands for this setting: Mus musculus, sc, subcutaneous administration, read-out: ED50 (mg/kg sc).
[4] abbreviates: Mus musculus, po, read-out: Inhibitory percentage (%).

Like-named read-outs stand apart in the source and are kept apart here.

`COc1cc(CNC(=O)CCCC/C=C/C(C)C)ccc1O` [Capsaicin, trans-8-methyl-N-vanillyl-6-nonenamide, reference compound]: the ED50 in the data set with male Std:ddY mice (setting [1]) is over 30 mg/kg; in the data set on male Std:ddY mice (setting [3]), 1.15 mg/kg. Moreover, in the data set with male Std:ddY mice (Mus musculus, po, orally administered at a dose of 30 mg/kg, read-out: Inhibitory percentage (%)), the inhibition in vivo at 30 mg/kg was found to be 20.6%. Besides, the inhibition in vivo at 1 mg/kg in the data set with male Std:ddY mice (setting [2]) is 46.6%. The “Number of wiping movements” value in the data set with Jcl:SD strain male rats (concentration 1 μg/ml) is on record as 6.0 ± 0.8; with Jcl:SD strain male rats (concentration 2 μg/ml) it was 7.8 ± 1.4; with Jcl:SD strain male rats (concentration 5 μg/ml), 11.2 ± 3.0; with Jcl:SD strain male rats (concentration 5 μg/ml, listed as capsaicin) it was “significantly increased”; with Jcl:SD strain male rats (concentration 10 μg/ml) it was 26.4 ± 6.0; in the data set with Jcl:SD strain male rats (concentration 20 μg/ml) it was 38.0 ± 4.8.

For the compound `COc1cc(CC(=O)Nc2cccc(C3CCC(C(C)(C)C)CC3)c2)ccc1O` (stereo not shown) [Example 20, N-[3-(4-tert-butylcyclohexan-1-yl)phenyl]-4-hydroxy-3-methoxyphenylacetamide], the inhibition in vivo at 10 mg/kg in the data set on male Std:ddY mice (setting [4]) amounted to 97.1%. In addition, the ED50 in the data set on male Std:ddY mice (setting [1]) was 1.28 mg/kg; with male Std:ddY mice (setting [3]), at most 0.1 mg/kg. For the same compound, in the data set on male Std:ddY mice (setting [2]), the inhibition in vivo at 1 mg/kg was 96.1%. Moreover, the “ED50 (mg/kg sc)” value in the data set on male Std:ddY mice (subcutaneous administration, listed as Ex. 20) came out at 0.056 mg/kg. In addition, the figures for the “Number of wiping movements” value in the data set with Jcl:SD strain male rats (concentration 100 μg/ml) and with Jcl:SD strain male rats (concentration 500 μg/ml) were 5.0 ± 1.3 and 10.6 ± 0.7, respectively.

Consider `COc1cc(CC(=O)Nc2cccc(CCc3ccccc3)c2)ccc1OCCN` [Example 60, 4-(2-aminoethoxy)-3-methoxy-N-[3-(2-phenylethyl)phenyl]-phenylacetamide], for which the ED50 in the data set with male Std:ddY mice (setting [1]) was at most 1 mg/kg; with male Std:ddY mice (setting [3]), 0.83 mg/kg. Also, the inhibition in vivo at 1 mg/kg in the data set on male Std:ddY mice (setting [2]) stood at 50.5%. Moreover, the “ED50 (mg/kg po)” value with male Std:ddY mice (oral administration, listed as Ex. 60) is 0.68 mg/kg. Further, the “Number of wiping movements” value in the data set with Jcl:SD strain male rats (concentration 500 μg/ml) was “no significant increase”; with Jcl:SD strain male rats (concentration 500 μg/ml, listed as Ex. 60), 4.2 ± 1.2; in the data set with Jcl:SD strain male rats (concentration 1000 μg/ml) it was 8.4 ± 2.1.

With `COc1cc(CC(=O)Nc2cccc(C3CCCCC3)c2)ccc1OCCN` [Example 61, 4-(2-aminoethoxy)-N-(3-cyclohexylphenyl)-3-methoxyphenylacetamide], in the data set on male Std:ddY mice (setting [4]), the inhibition in vivo at 10 mg/kg turned out to be 89%. The ED50 came to 3 mg/kg in the data set on male Std:ddY mice (setting [1]) and 0.13 mg/kg with male Std:ddY mice (setting [3]). In addition, the inhibition in vivo at 1 mg/kg in the data set with male Std:ddY mice (setting [2]) came out at 72.8%. Besides, the entries for the “Number of wiping movements” value with Jcl:SD strain male rats (concentration 20 μg/ml), in the data set with Jcl:SD strain male rats (concentration 100 μg/ml) and in the data set on Jcl:SD strain male rats (concentration 500 μg/ml) were 2.0 ± 0.8, 7.4 ± 2.1 and 15.6 ± 4.5, respectively.

Consider `COc1cc(CC(=O)Nc2cccc(C3CCC(C(C)(C)C)CC3)c2)ccc1OCCN` (stereo not shown) [Example 62, 4-(2-aminoethoxy)-N-[3-(4-tert-butylcyclohexan-1-yl)phenyl]-3-methoxyphenylacetamide], for which the inhibition in vivo at 10 mg/kg with male Std:ddY mice (setting [4]) is 96.1%. Further, the inhibition in vivo at 1 mg/kg with male Std:ddY mice (setting [2]) stood at 100%. Besides, the ED50 in the data set on male Std:ddY mice (setting [3]) is 0.23 mg/kg. Further, the “ED50 (mg/kg po)” value in the data set on male Std:ddY mice (oral administration, listed as Ex. 62) turned out to be 0.43 mg/kg. In addition, the “Number of wiping movements” value is recorded as “no significant increase” with Jcl:SD strain male rats (concentration 500 μg/ml); 4.6 ± 1.2 in the data set on Jcl:SD strain male rats (concentration 500 μg/ml, listed as Ex. 62); 7.6 ± 1.4 with Jcl:SD strain male rats (concentration 1000 μg/ml).

Regarding `COc1cc(CC(=O)Nc2cccc(-c3cccc(F)c3)c2)ccc1OCCN` [Example 66, 4-(2-aminoethoxy)-N-[3-(3-fluorophenyl)phenyl]-3-methoxyphenylacetamide], the inhibition in vivo at 10 mg/kg in the data set on male Std:ddY mice (setting [4]) was 100%. The “Number of wiping movements” value with Jcl:SD strain male rats (concentration 100 μg/ml) is on record as 5.6 ± 2.4; in the data set on Jcl:SD strain male rats (concentration 500 μg/ml) it was “no significant increase”; in the data set on Jcl:SD strain male rats (concentration 500 μg/ml, listed as Ex. 66), 3.6 ± 1.6.

In the case of `COc1cc(CC(=O)Nc2cccc(-c3ccc(Cl)cc3)c2)ccc1OCCN` [Example 67, 4-(2-aminoethoxy)-N-[3-(4-chlorophenyl)phenyl]-3-methoxyphenylacetamide], the inhibition in vivo at 10 mg/kg in the data set on male Std:ddY mice (setting [4]) was 90.2%. In addition, the “Number of wiping movements” value in the data set on Jcl:SD strain male rats (concentration 100 μg/ml) is 3.8 ± 1.3; in the data set on Jcl:SD strain male rats (concentration 500 μg/ml), 13.4 ± 2.8.

Consider `COc1cc(CC(=O)Nc2cccc(-c3cccc(C4CCCCC4)c3)c2)ccc1OCCN` [Example 183, 4-(2-aminoethoxy)-N-[3-(3-cyclohexylphenyl)phenyl]-3-methoxyphenylacetamide], for which the inhibition in vivo at 10 mg/kg with male Std:ddY mice (setting [4]) is 83.5%. Also, the ED50 in the data set with male Std:ddY mice (setting [1]) is 3.09 mg/kg.

Regarding `COc1cc(CC(=O)Nc2cccc(-c3ccccc3C(C)(C)C)c2)ccc1OCCN` [Example 184, 4-(2-aminoethoxy)-N-[3-(2-tert-butylphenyl)phenyl]-3-methoxyphenylacetamide], the inhibition in vivo at 10 mg/kg in the data set with male Std:ddY mice (setting [4]) came to 100%. Also, the ED50 in the data set with male Std:ddY mice (setting [1]) is at most 1 mg/kg. For the same compound, in the data set on male Std:ddY mice (oral administration, listed as Ex. 184), the “ED50 (mg/kg po)” value was 0.60 mg/kg.

On to `COc1cc(CC(=O)Nc2cccc([C@H]3CC[C@@H](C(C)(C)C)CC3)c2)ccc1OCCN` [Example 194, 4-(2-aminoethoxy)-N-[3-[(cis)-4-tert-butylcyclohexan-1-yl]-phenyl]-3-methoxyphenylacetamide], for which the inhibition in vivo at 10 mg/kg in the data set with male Std:ddY mice (setting [4]) is 96.2%. Moreover, the ED50 in the data set with male Std:ddY mice (setting [1]) was 1.05 mg/kg.

As for `COc1cc(CC(=O)Nc2cccc([C@H]3CC[C@H](C(C)(C)C)CC3)c2)ccc1OCCN` [Example 195, 4-(2-aminoethoxy)-N-[3-[(trans)-4-tert-butylcyclohexan-1-yl]-phenyl]-3-methoxyphenylacetamide], the inhibition in vivo at 10 mg/kg with male Std:ddY mice (setting [4]) amounted to 77.7%.

For `COc1cc(CC(=O)Nc2cccc(N3CCCCC3)c2)ccc1OCCN` [Example 197, 4-(2-aminoethoxy)-3-methoxy-N-[3-(piperidin-1-yl)phenyl]-phenylacetamide], the inhibition in vivo at 10 mg/kg with male Std:ddY mice (setting [4]) came out at 89.1%. The ED50 with male Std:ddY mice (setting [1]) was 5.26 mg/kg.

Regarding `COc1cc(CC(=O)Nc2cccc(N3CCCC(C4CCCCC4)C3)c2)ccc1OCCN` (stereo not shown) [Example 199, 4-(2-aminoethoxy)-N-[3-(3-cyclohexylpiperidin-1-yl)phenyl]-3-methoxyphenylacetamide], the inhibition in vivo at 10 mg/kg in the data set with male Std:ddY mice (setting [4]) turned out to be 71.6%.

As to `COc1cc(CC(=O)Nc2cccc(N3CCCC(c4ccccc4)C3)c2)ccc1OCCN` (stereo not shown) [Example 200, 4-(2-aminoethoxy)-3-methoxy-N-[3-(3-phenylpiperidin-1-yl)-phenyl]phenylacetamide], the inhibition in vivo at 10 mg/kg with male Std:ddY mice (setting [4]) is 84.2%.

`COc1cc(CC(=O)Nc2cccc(N3CCCC4(CCCCC4)C3)c2)ccc1OCCN` [Example 201, 4-(2-aminoethoxy)-3-methoxy-N-[3-(2-azaspiro[5, 5]undecan-2-yl)phenyl]phenylacetamide]: in the data set on male Std:ddY mice (setting [4]), the inhibition in vivo at 10 mg/kg is 100%. Moreover, the ED50 in the data set on male Std:ddY mice (setting [1]) was found to be 2.04 mg/kg.

On to `COc1cc(CC(=O)Nc2cccc(CCc3cccc(C)c3)c2)ccc1OCCN` [Example 217, 4-(2-aminoethoxy)-3-methoxy-N-[3-[2-(3-methylphenyl)ethyl]-phenyl]phenylacetamide], for which the inhibition in vivo at 10 mg/kg in the data set with male Std:ddY mice (setting [4]) turned out to be 96.3%. In the data set with male Std:ddY mice (setting [1]), the ED50 is 1.13 mg/kg.

With `COc1cc(CC(=O)Nc2cccc(CCc3ccccc3F)c2)ccc1OCCN` [Example 219, 4-(2-aminoethoxy)-3-methoxy-N-[3-[2-(2-fluorophenyl)ethyl]-phenyl]phenylacetamide], in the data set with male Std:ddY mice (setting [4]), the inhibition in vivo at 10 mg/kg is 94%. Further, the ED50 in the data set on male Std:ddY mice (setting [1]) stood at 1.46 mg/kg.

On to `COc1cc(CC(=O)Nc2ccc3ccn(Cc4ccccc4)c3c2)ccc1OCCN` [Example 238, 4-(2-aminoethoxy)-3-methoxy-N-[1-benzylindol-6-yl]phenylacetamide], for which, in the data set with male Std:ddY mice (setting [2]), the inhibition in vivo at 1 mg/kg turned out to be 70.2%. For the same compound, the ED50 in the data set on male Std:ddY mice (setting [3]) came to 0.37 mg/kg.

Regarding `COc1cc(CC(=O)Nc2ccc3c(c2)C(=O)C(Cc2ccccc2)CC3)ccc1O` (stereo not shown) [Example 249, 4-hydroxy-3-methoxy-N-[1-oxo-2-phenylmethyl-1,2,3,4-tetrahydronaphthalen-7-yl]phenylacetamide], the inhibition in vivo at 1 mg/kg in the data set on male Std:ddY mice (setting [2]) stood at 89.4%. In the data set with male Std:ddY mice (subcutaneous administration, listed as Ex. 249), the “ED50 (mg/kg sc)” value turned out to be 0.043 mg/kg.
